Measured values taken from paper PMC7693160 (Pharmaceutics, 2020).
Several values for one entry are separate records, joined by “and”; a condition that tells them apart may be missing. Identical values can stand only once. Like-named read-outs stand apart in the source and are kept apart here. Marks after values point to notes of the source that are not given here.

Assays:
[1] = Model-based analysis of in vitro dissolution data (DLM, SIVA); assay type: physicochemical
Excerpt: The dissolution rate of spherical particles under sink and non-sink conditions within SIVA is described by an extension of the diffusion layer model (DLM) developed by Wang and Flanagan (Equation (3)). (3) DRt=-[…] where DRt is the dissolution rate at time t, N is the number of particles in a given particle size bin, and SDLM is a lumped correction scalar without regard to the mechanistic origin of the correction to the DLM. The SDLM estimates obtained with SIVA can be applied to the Simcyp PBPK simulator to reflect differences between media or formulations by simulating the respective in vivo dissolution; Deff is the effective diffusion coefficient; […] represent the thickness of the hydrodynamic boundary layer and the particle radius at time t, respectively; Ssurfacet corresponds to the saturation solubility at the particle surface (which may be different to the bulk fluid solubility, as discussed below); and Cbulkt is the concentration of dissolved drug in bulk solution at time t. The […] calculated by the fluid dynamics sub-model, which enables the hydrodynamic conditions to be described according to local conditions and stirring rate. Fluid dynamics-based […] recommended option for describing the hydrodynamics, as it permits a more rational translation of estimated parameters such as the SDLM to in vivo conditions, in which the hydrodynamics are usually quite different to in vitro experiments. […] Since the in vitro dissolution media have a somewhat […] buffer capacity than the intestinal fluids, the self-buffering effect at the solid surface can be underestimated. For this reason, the surface pH was calculated and directly input into SIVA. The calculation of the surface pH is based on the model first proposed by Mooney et al., which assumes that dissolution is the result of both chemical reaction between the conjugate base of the buffer species and the hydrogen cations released from the dissolving drug (in this case FLU) at the liquid-solid interface and the diffusion of the dissolved particles to the bulk. This model is very similar to the quasi-equilibrium model published by Ozturk et al., a derivative of which is implemented in SIVA as the default option for surface pH calculations. By fitting the DLM model to the observed dissolution data, we obtained SDLM estimates for each dissolution and two-stage test. In the case of two-stage testing, different SDLM values were obtained for the gastric and intestinal compartments, accounting for the changes in the respective in vitro conditions. Under fasted state intestinal conditions, FLU is freely soluble and therefore dissolution is not expected to be solubility limited. In that case, disintegration of the solid dosage form in the intestinal dissolution medium might be the rate-limiting step for the in vitro dissolution rate, especially in single dissolution experiments where the dosage form is directly exposed to the intestinal medium without any pre-treatment in a gastric medium. […] For the two-stage test experiments, the option was kept deactivated since disintegration in the stomach is already accounted for by the dissolution in the gastric medium. Both gastric and intestinal phases of the two-stage results were modelled simultaneously using the serial dilution model, which can account for more than one in vitro dissolution condition in the same experiment. Estimation of the relevant parameters was performed using the Nelder-Mead algorithm and equal weighting was applied. […]

[2] = tested on: Caco-2 cells; settings: cited from earlier work
[3] = tested on: CYP2C9 3*/3*; settings: Recombinant CYP (fu,mic = 1), cited from earlier work
[4] = cited from earlier work
[5] = 1st value, ref Lee et al. (2003) as printed
[6] = 2nd value, ref Lee et al. (2015) as printed
[7] = po sol s.d. 40 mg, CYP2C9 1*/1*
[8] = po sol s.d. 40 mg, CYP2C9 1*/3*
[9] = po tab (Froben) s.d. 100 mg, ref 4
[10] = po tab (Froben) s.d. 100 mg, ref 38
[11] = po tab s.d. 50 mg, CYP2C9 1*/1*
[12] = po tab s.d. 50 mg, CYP2C9 1*/1*, median
[13] = po tab s.d. 50 mg, CYP2C9 1*/2*
[14] = po tab s.d. 50 mg, CYP2C9 1*/3*
[15] = po tab s.d. 50 mg, CYP2C9 1*/3*, median
[16] = po tab s.d. 50 mg, CYP2C9 3*/3*, individual values (n = 2)

For `CC(C(=O)O)c1ccc(-c2ccccc2)c(F)c1` (stereo not drawn) [flurbiprofen], the “SDLM (95% CI)” value ([1]; FaSSGF Level III) was 0.0218 (0.0161–0.0274), the “SDLM (95% CI)” value ([1]; FaSSIF V3 Level I, listed as API) was 0.00185 and the “SDLM (95% CI)” value ([1]; FaSSIF V3 Level I, listed as API Powder) was 0.00185 (0.001–0.00312). For the same compound, the “SDLM (95% CI)” value ([1]; FaSSIF V3 Level II) was 0.0965 (0.0544–0.139), the “SDLM (95% CI)” value ([1]; Ph. Eur. Phosphate Buffer) was 0.00542 (0.00468–0.00617) and the “Papp, Caco-2” value [2] was 2.01e-05 cm/s. The “CYP2C9 3*/3*-Vmax” value [3] was 8.901 pmol/min/pmol CYP, the Km ([3]; read-out: CYP2C9 3*/3*-Km) was 23.2 µM and the “observed decrease in CYP2C9 1*/3* clearance” value [4, 5] was “about 37%”. For the same compound, the “observed increase in AUC, CYP2C9 1*/3*” value [4, 5] was 1.62 fold, the “observed decrease in CYP2C9 1*/3* clearance” value [4, 6] was ~44% and the “observed increase in AUC, CYP2C9 1*/3*” value [4, 6] was 1.74 fold. The “observed decrease in clearance” value ([4]; CYP2C9 1*/2* individuals) was “about 27%”, the “observed decrease in clearance” value ([4]; CYP2C9 1*/3* individuals) was ~40% and the Fox ([4]; PBPK input) was 0.71. The Clrenal [4] was 0.066 L/h, the “steady-state volume of distribution (Vss)” value [4] was “around 0.1 L/kg” and the fmCYP2C9 ([4]; contribution to overall metabolic clearance) was 0.71. The CYP2C9 metabolic contribution ([4]; human, in vivo) was “at least 71%”, the absolute bioavailability ([4]; human, in vivo) was ~ 95% and the “eliminated through metabolic oxidation to 4-hydroxy FLU” value ([4]; human, in vivo) was > 71 % of the dose. The AUCinf obs ([4]; iv s.d. 50 mg) was 35.2 mg·h/L, the fmCYP2C9 ([4]; metabolism by polymorphic CYP2C9) was ≥ 0.71 and the “dose excreted into urine as acyl glucuronide of (R)-FLU” value ([4]; oral racemic FLU) was 8.4%. The “dose excreted into urine as acyl glucuronide of (S)-FLU” value ([4]; oral racemic FLU) was 7.3%, the AUCinf obs ([4]; po orod s.d. 150 mg) was 129.8 mg·h/L and the Cmax obs ([4]; po orod s.d. 150 mg) was 16.8 mg/L. For the same compound, the AUCinf obs [4, 7] was 29.3 mg·h/L, the CL/F obs [4, 7] was 1.39 L/h and the Cmax obs [4, 7] was 5.54 mg/L. For the same compound, the AUCinf obs [4, 8] was 47.6 mg·h/L, the CL/F obs [4, 8] was 0.88 L/h and the Cmax obs [4, 8] was 6.93 mg/L. The AUCinf obs ([4]; po sol s.d. 67.9 mg) was 55.1 mg·h/L, the Cmax obs ([4]; po sol s.d. 67.9 mg) was 10.8 mg/L and the AUCinf obs ([4]; po sol s.d. 100 mg) was 82.7 mg·h/L. For the same compound, the CL/F obs ([4]; po sol s.d. 100 mg) was 1.28 L/h, the Cmax obs ([4]; po sol s.d. 100 mg) was 14.2 mg/L and the AUCinf obs ([4]; po tab (Ansaid) s.d. 100 mg) was 80.5 mg·h/L. For the same compound, the Cmax obs ([4]; po tab (Ansaid) s.d. 100 mg) was 12.8 mg/L, the AUCinf obs ([4]; po tab (Ansaid) s.d. 200 mg) was 161.3 mg·h/L and the CL/F obs ([4]; po tab (Ansaid) s.d. 200 mg) was 1.32 L/h. For the same compound, the Cmax obs ([4]; po tab (Ansaid) s.d. 200 mg) was 21.4 mg/L, the AUCinf obs ([4]; po tab (Ansaid) s.d. 300 mg) was 233.9 mg·h/L and the CL/F obs ([4]; po tab (Ansaid) s.d. 300 mg) was 1.36 L/h. The Cmax obs ([4]; po tab (Ansaid) s.d. 300 mg) was 29.5 mg/L, the AUCinf obs [4, 9] was 87.8 mg·h/L and the CL/F obs [4, 9] was 1.27 L/h. The Cmax obs [4, 9] was 13.2 mg/L, the AUCinf obs [4, 10] was 82.3 mg·h/L and the Cmax obs [4, 10] was 13.3 mg/L. For the same compound, the AUCinf obs [4, 11] was 29.4 mg·h/L, the CL/F obs [4, 11] was 1.77 L/h and the Cmax obs [4, 11] was 5.38 mg/L. For the same compound, the AUCinf obs [4, 12] was 30.8^a mg/L·h, the CL/F obs [4, 12] was 1.6 ^a L/h and the Cmax obs [4, 12] was 6.1 ^a mg/L. The AUCinf obs [4, 13] was 40.7 mg·h/L, the CL/F obs [4, 13] was 1.30 L/h and the Cmax obs [4, 13] was 4.55 mg/L. The AUCinf obs [4, 14] was 51.1 mg·h/L, the CL/F obs [4, 14] was 1.00 L/h and the Cmax obs [4, 14] was 5.42 mg/L. For the same compound, the AUCinf obs [4, 15] was 53.7 ^a mg/L·h, the CL/F obs [4, 15] was 0.9 ^a L/h and the Cmax obs [4, 15] was 8.9 ^a mg/L. The AUCinf obs [4, 16] was 85.8 mg·h/L and 119 mg·h/L, the CL/F obs [4, 16] was 0.6 L/h and 0.4 L/h and the Cmax obs [4, 16] was 8 mg/L and 9.4 mg/L. The AUCinf obs ([4]; po tab s.d. 100 mg) was 67.7 mg·h/L, the CL/F obs ([4]; po tab s.d. 100 mg) was 1.52 L/h and the Cmax obs ([4]; po tab s.d. 100 mg) was 12.9 mg/L. For the same compound, the AUCinf obs ([4]; po tab s.d. 150 mg) was 124.3 mg·h/L, the Cmax obs ([4]; po tab s.d. 150 mg) was 15.2 mg/L and the “fraction absorbed (fa)” value ([4]; small intestine) was “greater than 95%”.
